Data: patent US8258309B2, “Azapeptide derivatives” (priority 2007, dated 2012)
Like-named read-outs stand apart in the source and are kept apart here.

What was measured:
HIV-1RF = assay: HIV anti-viral activity in CEM-SS cells infected with HIV-1 (XTT); format: cell-based
Experimental: The HIV antiviral activity of compound of the present invention was tested in CEM-SS cells infected with HIV-1. CEM-SS cells were passaged in T-75 flasks in RPMI 1640 medium supplemented with 10% heat inactivated fetal bovine serum, 2 mmol/L L-glutamine, 100 U/mL penicillin and 100 flg/mL streptomycin prior to use in the antiviral assay. On the day preceding the assay, the cells were split 1:2 to assure they were in an exponential growth phase at the time of infection. Total cell and viability quantification was performed using a hemocytometer and Trypan Blue dye exclusion. Cell viability was greater than 95% for the cells to be utilized in the assay. The cells were resuspended at 5×10^4 cells per mL in tissue culture medium and added to the drug-containing microtiter plates in a volume of 50 μL.
The virus used for the assay was the lymphocyte-tropic virus strain HIV-IRF. The virus was obtained from the NIH AIDS Research and Reference Reagent Program and stock virus pools were produced in CEM-SS cells. A pre-titered aliquot of virus was removed from the freezer (−80° C.) and allowed to thaw slowly to room temperature in a biological safety cabinet. Virus was resuspended and diluted into tissue culture medium such that the amount of virus added to each well in a volume of 50 μL was the amount determined to yield 85 to 95% cell killing at 6 days post-infection.
Each plate contains cell control wells (cells only), virus control wells (cells plus virus), compound toxicity wells (cells plus compound only), compound colorimetric control wells (compound only) as well as experimental wells (compound plus cells plus virus). Samples were tested in triplicate with eleven half-log dilutions per compound starting at 0.1 μM of compound. Compounds 104, 120 and 122 were tested, as was atazanavir and AZT. […]
Following incubation at 37° C. in a 5% CO2 incubator, the test plates were stained with the tetrazolium dye XTT (2,3-bis(2-methoxy-4-nitro-5sulfophenyl)-5-[(phenylamino)carbonyl]-2H-tetrazolium hydroxide). XTT-tetrazolium was metabolized by the mitochondrial enzymes of metabolically active cells to a soluble formazan product, allowing rapid quantitative analysis of the inhibition of HIV induced cell killing by anti-HIV test substances. XTT solution was prepared daily as a stock of 1 mg/mL in RPMI 1640. Phenazine methosulfate (PMS) solution was prepared at 0.15 mg/mL in PBS and stored in the dark at −20° C. XTT/PMS stock was prepared immediately before use by adding 40 μL of PMS per mL of XTT solution. Fifty microliters of XTT/PMS was added to each well of the plate and the plate was reincubated for 4 hours at 37° C. Plates were sealed with adhesive plate sealers and shaken gently or inverted several times to mix the soluble formazan product and the plate was read spectrophotometrically at 450/650 nm with a Molecular Devices Vmax plate reader.
Raw data was collected from the Softmax Pro 4.6 software and imported into a Microsoft Excel 2003 spreadsheet for analysis by linear curve fit calculations.

[1] = Microsomal assay: stability in human liver microsomes; format: in vitro ADME; details: for half-life as compared to atazanavir: human liver microsomes, first run; for half-life at 1 μM: liver microsomes
Experimental: Microsomal Assay. Human liver microsomes (20 mg/mL, pool of 50 individuals) were obtained from Xenotech LLC (Lenexa, Kans.). The incubation mixtures are prepared as follows. Stock solutions (10 mM) solutions of test Compounds 103, 106, 122 and of atazanavir were prepared in DMSO. The 10 mM stock solutions were diluted to 1 mM in acetonitrile (ACN). […] The microsome-test compound mixtures were added to wells of a 2 mL 96-well deep well polypropylene plate in triplicate. The plate was warmed to 37° C. before initiating the reactions by addition of prewarmed NADPH in 0.1 M potassium phosphate buffer, pH 7.4, containing 3 mM MgCl2. The final reaction mixture composition contained: • Liver Microsomes 0.5 mg/mL • NADPH 2 mM • Potassium Phosphate, pH 7.4 100 mM • Magnesium Chloride 3 mM • Test Compound 1.0 μM. The reaction mixtures were incubated at 37° C. and 50 μL aliquots were removed at 0, 3, 7, 12, 20, and 30 minutes and added to shallow-well 96-well plates which contained 50 μL of ice-cold ACN with internal standard to stop the reactions. The plates were stored at −20° C. for 30 minutes, after which 100 μL of water was added to the wells of the plate before centrifugation to pellet precipitated proteins. Supernatants were transferred to another 96-well plate and analyzed for amounts of parent remaining by LC-MS/MS using an Applied Biosystems API 4000 mass spectrometer. […] Data analysis was performed using Microsoft Excel Software. […] The results are shown in FIGS. 2 and 3 and in Table 3, below: […]

[2] = No Serum Protein Added (cell culture medium)
[3] = human, pH 7.4, human liver microsomes 0.5 mg/mL, 1.0 μM test compound, first run (Table 2), read-out: T1/2 ± SD
[4] = human, pH 7.4, human liver microsomes, repeated assay (Table 3), read-out: t1/2 (min) Avg ± SD (n = 3)

## 1,14-Dimethyl(3S,8S,9S,12S)-3-(1,1-dimethylethyl)-12-[(1,1-dimethylethyl)-d9]-8-hydroxy-4,11-dioxo-9-(phenylmethyl)-6-[[4-(2-pyridinyl)phenyl]methyl]-2,5,6,10,13-pentaazatetradecanedioate [Compound 104]
HIV-1RF; 0.5 mg/mL AAGP versus cell culture medium
  fold increase of EC50 in the presence of AAGP: greater than 7 fold
HIV-1RF; 10 mg/mL HSA versus cell culture medium
  fold less potent in the presence of HSA than in cell culture medium alone: two- to greater than three-fold less potent
HIV-1RF; +0.5 mg/mL AAGP
  EC50: 2 nM
HIV-1RF; +10 mg/mL HAS
  EC50: 0.9 nM
HIV-1RF; +AAGP + HSA
  EC50: 4 nM
HIV-1RF; AAGP plus HSA versus cell culture medium
  fold decrease of antiviral activity in the presence of AAGP plus HSA: greater than 13 fold
HIV-1RF; [2]
  EC50: < 0.3 nM
[1]; human, microsomes
  t1/2 (min) Avg ± SD (n = 3): 23.3 ± 0.4 min

## Cc1cn([C@H]2C[C@H](N=[N+]=[N-])[C@@H](CO)O2)c(=O)[nH]c1=O [AZT, reference compound]
HIV-1RF; +0.5 mg/mL AAGP
  EC50: 1 nM
HIV-1RF; +10 mg/mL HAS
  EC50: 2 nM
HIV-1RF; +AAGP + HSA
  EC50: 2 nM
HIV-1RF; [2]
  EC50: 2 nM

## [2H]C([2H])([2H])OC(=O)N[C@H](C(=O)N[C@@H](Cc1ccccc1)[C@@H](O)CN(Cc1ccc(-c2ccccn2)cc1)NC(=O)[C@@H](NC(=O)OC([2H])([2H])[2H])C(C)(C)C)C(C)(C)C [Compound 103, 1,14-Di(methyl-d3)(3S,8S,9S,12S)-3,12-bis(1,1-dimethylethyl)-8-hydroxy-4,11-dioxo-9-(phenylmethyl)-6-[[4-(2-pyridinyl)phenyl]methyl]-2,5,6,10,13-pentaazatetradecanedioate]
[1]
  half-life as compared to atazanavir: increased half-life
[1]; human, 1 μM, pH 7.4
  % change in t1/2: −9%
[1]; [3]
  half-life at 1 μM: 20.2 ± 4.22 min
[1]; [4]
  half-life at 1 μM: 17.2 ± 0.9 min

## [2H]C([2H])([2H])C([C@H](NC(=O)OC)C(=O)N[C@@H](Cc1ccccc1)[C@@H](O)CN(Cc1ccc(-c2ccccn2)cc1)NC(=O)[C@@H](NC(=O)OC)C(C([2H])([2H])[2H])(C([2H])([2H])[2H])C([2H])([2H])[2H])(C([2H])([2H])[2H])C([2H])([2H])[2H] [Compound 106, 1,14-Dimethyl(3S,8S,9S,12S)-3,12-bis[(1,1-dimethylethyl)-d9]-8-hydroxy-4,11-dioxo-9-(phenylmethyl)-6-[[4-(2-pyridinyl)phenyl]methyl]-2,5,6,10,13-pentaazatetradecanedioate]
[1]
  half-life as compared to atazanavir: increased half-life
[1]; human, 1 μM, pH 7.4
  increase in half-life as compared to atazanavir: approximately 40%
[1]; [3]
  half-life at 1 μM: 26.1 ± 0.99 min
[1]; [4]
  half-life at 1 μM: 25.6 ± 0.6 min

## [2H]C([2H])(c1ccc(-c2ccccn2)cc1)N(C[C@H](O)[C@H](Cc1ccccc1)NC(=O)[C@@H](NC(=O)OC)C(C([2H])([2H])[2H])(C([2H])([2H])[2H])C([2H])([2H])[2H])NC(=O)[C@@H](NC(=O)OC)C(C)(C)C [Compound 111, 1,14-Dimethyl(3S,8S,9S,12S)-3-(1,1-dimethylethyl)-12-[(1,1-dimethylethyl)-d9]-8-hydroxy-4,11-dioxo-9-(phenylmethyl)-6-[[4-(2-pyridinyl)phenyl]methyl-d2]2,5,6,10,13-pentaazatetradecanedioate]
[1]; [4]
  half-life at 1 μM: 23.9 ± 0.3 min

## [2H]C([2H])([2H])OC(=O)N[C@H](C(=O)N[C@@H](Cc1ccccc1)[C@@H](O)CN(Cc1ccc(-c2ccccn2)cc1)NC(=O)[C@@H](NC(=O)OC([2H])([2H])[2H])C(C([2H])([2H])[2H])(C([2H])([2H])[2H])C([2H])([2H])[2H])C(C)(C)C [Compound 121, 1,14-Di(methyl-d3)(3S,8S,9S,12S)-3-[(1,1-dimethylethyl)-d9]-12-(1,1-dimethylethyl)-8-hydroxy-4,11-dioxo-9-(phenylmethyl)-6-[[4-(2-pyridinyl)phenyl]methyl]-2,5,6,10,13-pentaazatetradecanedioate]
[1]; [4]
  half-life at 1 μM: 18.8 ± 1.5 min

## [2H]C([2H])([2H])OC(=O)N[C@H](C(=O)N[C@@H](Cc1ccccc1)[C@@H](O)CN(NC(=O)[C@@H](NC(=O)OC)C(C)(C)C)C([2H])([2H])c1ccc(-c2ccccn2)cc1)C(C([2H])([2H])[2H])(C([2H])([2H])[2H])C([2H])([2H])[2H] [Compound 123, 1-Methyl-14-(methyl-d3)(3S,8S,9S,12S)-3-(1,1-dimethylethyl)-12-[(1,1-dimethylethyl)-d9]-8-hydroxy-4,11-dioxo-9-(phenylmethyl)-6-[[4-(2-pyridinyl)phenyl]methyl-2]-2,5,6,10,13-pentaazatetradecanedioate]
[1]; [4]
  half-life at 1 μM: 23.9 ± 0.8 min

## [2H]C([2H])([2H])OC(=O)N[C@H](C(=O)N[C@@H](Cc1ccccc1)[C@@H](O)CN(NC(=O)[C@@H](NC(=O)OC([2H])([2H])[2H])C(C([2H])([2H])[2H])(C([2H])([2H])[2H])C([2H])([2H])[2H])C([2H])([2H])c1ccc(-c2ccccn2)cc1)C(C([2H])([2H])[2H])(C([2H])([2H])[2H])C([2H])([2H])[2H] [Compound 131, 1,14-Di(methyl-d3)(3S,8S,9S,12S)-3,12-bis[(1,1-dimethylethyl)-d9]-8-hydroxy-4,11-dioxo-9-(phenylmethyl)-6-[[4-(2-pyridinyl)phenyl]methyl-d2]-2,5,6,10,13-pentaazatetradecanedioate]
[1]; [4]
  half-life at 1 μM: 30.9 ± 1.4 min
